Test results: patent US20240383908A1, “SYNTHESIS AND APPLICATION OF PHOSPHATASE DEGRADER” (HINOVA PHARMACEUTICALS INC., priority 2021, published 2024)

How the values were obtained:
SHP2 protein [1] = target: T1, SHP2 protein (Homo sapiens, UniProt Q06124); assay: Degradation activity on SHP2 protein in MV-411 cells (Western blot, DC50); format: cell-based; parameters: endogenous in cells; conditions: MV411 cells, 24 hours, read-out: Degradation activity for differenct cell lines MV411 (DC50)
T1 sequence (Q06124 1-593): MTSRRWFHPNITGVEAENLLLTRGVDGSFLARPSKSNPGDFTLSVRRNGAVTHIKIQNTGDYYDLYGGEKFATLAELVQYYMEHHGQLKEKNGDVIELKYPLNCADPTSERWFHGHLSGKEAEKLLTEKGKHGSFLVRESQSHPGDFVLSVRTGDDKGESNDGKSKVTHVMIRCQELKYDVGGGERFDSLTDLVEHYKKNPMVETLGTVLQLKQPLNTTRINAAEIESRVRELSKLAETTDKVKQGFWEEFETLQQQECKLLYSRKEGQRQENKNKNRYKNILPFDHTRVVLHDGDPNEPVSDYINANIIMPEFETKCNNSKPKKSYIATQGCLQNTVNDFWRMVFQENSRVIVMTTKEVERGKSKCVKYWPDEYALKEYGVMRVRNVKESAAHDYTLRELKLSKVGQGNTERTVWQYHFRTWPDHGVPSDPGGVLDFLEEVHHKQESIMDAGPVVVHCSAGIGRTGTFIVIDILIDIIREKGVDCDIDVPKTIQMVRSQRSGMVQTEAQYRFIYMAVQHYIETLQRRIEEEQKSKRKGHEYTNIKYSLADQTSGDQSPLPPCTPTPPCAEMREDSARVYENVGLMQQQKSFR
In short: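 Western blot of SHP2 (GAPDH loading control, 30 μg protein/lane) in lysates of MV-411 cells exposed 24 h to final compound concentrations of 100, 10, 3, 1, 0.3 and 0.1 nM (0.1% DMSO). Degradation relative to DMSO set at 100%; DC50 derived by curve fitting.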

SHP2 protein [2] = target: T1, SHP2 protein; assay: Degradation activity on SHP2 protein in MIA Paca-2 cells (Western blot, DC50); format: cell-based; parameters: endogenous in cells; host or cells: MIA Paca-2 cells; conditions: read-out: Degradation activity for differenct cell lines MIA Paca-2 (DC50)
In short: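 DC50 is the concentration degrading 50% of SHP2 relative to DMSO control. It was derived by fitting Western blot band densitometry (anti-SHP2, GAPDH reference) from cells exposed 24 h to 0.1–100 nM compound in 0.1% DMSO.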

Compound	DC50 (SHP2 protein [1]) [nM]	DC50 (SHP2 protein [2]) [nM]
CC1(N)CCN(c2cnc(Sc3cccc(NC(=O)CCCCCCCCN4CCN(c5ncc(C(=O)NCc6ccc7c(c6)CN(C6CCC(=O)NC6=O)C7=O)cn5)CC4)c3)cn2)CC1 (centres unmarked) [Compound 48, 2-(4-(9-((3-((5-(4-amino-4-methylpyridin-1-yl)pyrazin-2-yl)thio)phenyl)amino)-9-oxononyl)piperazin-1-yl)-N-((2-(2,6-dioxopiperidin-3-yl)-1-oxoisoindol-5-yl)methyl)pyrimidine-5-formamide]	< 100	< 100
CC1(N)CCN(c2cnc(Sc3cccc(NC(=O)/C=C/C(=O)N4CCN(CCCCCCCCC(=O)NCc5ccc6c(c5)CN(C5CCC(=O)NC5=O)C6=O)CC4)c3)cn2)CC1 (centres unmarked) [Compound 55]	< 100	> 1000
CC1(N)CCN(c2cnc(Sc3ccc(NC(=O)CCCCCCCCOC4CN(c5ncc(C(=O)NCc6ccc7c(c6)CN(C6CCC(=O)NC6=O)C7=O)cn5)C4)cc3)cn2)CC1 (centres unmarked) [Compound 74]	< 100	100 to 1000
Cc1ncsc1-c1ccc([C@H](C)NC(=O)[C@@H]2C[C@@H](O)CN2C(=O)[C@@H](NC(=O)c2cnc(N3CCC4(CN(CCCCCCC(=O)Nc5cccc(Sc6cnc(N7CCC(C)(N)CC7)cn6)c5)C4)C3)nc2)C(C)(C)C)cc1 [Compound 90]	< 100	< 100
CC1(N)CCN(c2cnc(Sc3cccc(NC(=O)CCCCCCN4CC5(CCN(c6ncc(C(=O)NCc7ccc8c(c7)CN(C7CCC(=O)NC7=O)C8=O)cn6)C5)C4)c3)cn2)CC1 (centres unmarked) [Compound 91]	< 100	100 to 1000
Cc1ncsc1-c1ccc([C@H](C)NC(=O)[C@@H]2C[C@@H](O)CN2C(=O)[C@@H](NC(=O)c2ccc(N3CCC4(CN(CCC(=O)Nc5cccc(Sc6cnc(N7CCC(C)(N)CC7)cn6)c5)C4)C3)nn2)C(C)(C)C)cc1 [Compound 98]	< 100	100 to 1000
CC1(N)CCN(c2cnc(Sc3cccc(NC(=O)CCCCCCCO[C@H]4CCN(c5ccc(C(=O)NCc6ccc7c(c6)CN(C6CCC(=O)NC6=O)C7=O)nn5)C4)c3)cn2)CC1 (some centres unmarked) [Compound 102]	< 100	< 100
CC1(N)CCN(c2cnc(Sc3cccc(NC(=O)CCCCCCCO[C@@H]4CCN(c5ncc(C(=O)NCc6ccc7c(c6)CN(C6CCC(=O)NC6=O)C7=O)cn5)C4)c3)cn2)CC1 (some centres unmarked) [Compound 104]	< 100	> 1000
Cc1ncsc1-c1ccc([C@H](C)NC(=O)[C@@H]2C[C@@H](O)CN2C(=O)[C@@H](NC(=O)c2ccc(N3CCC4(CN(CCCCCCCC(=O)Nc5cccc(Sc6cnc(N7CCC(C)(N)CC7)cn6)c5)C4)C3)nn2)C(C)(C)C)cc1 [Compound 105]	< 100	100 to 1000
CC1(N)CCN(c2cnc(Sc3cccc(NC(=O)CCCCCCCN4CC5(CCN(c6ccc(COc7cccc8c7CN(C7CCC(=O)NC7=O)C8=O)nn6)C5)C4)c3)cn2)CC1 (centres unmarked) [Compound 107]	< 100	> 1000
O=C1CCC(N2Cc3cc(CNC(=O)c4ccc(N5CCC6(CN(CCCCCCC(=O)Nc7cccc(Sc8cnc(N9CCC%10(CCNC%10)CC9)cn8)c7)C6)C5)nn4)ccc3C2=O)C(=O)N1 (centres unmarked) [Compound 112]	< 100	> 1000
NC1CCN(c2cnc(Sc3cccc(NC(=O)CCCCN4CC5(CCN(c6ccc(C(=O)NCc7ccc8c(c7)CN(C7CCC(=O)NC7=O)C8=O)nn6)C5)C4)c3)cn2)CC1F (centres unmarked) [Compound 140]	> 1000	> 1000
CC1(N)CCN(c2cnc(Sc3cccc(NC(=O)CCCCCCCOC4CCN(c5ccc(C(=O)NCc6ccc7c(c6)CN(C6CCC(=O)NC6=O)C7=O)nn5)CC4F)c3)cn2)CC1 (centres unmarked) [Compound 146]	< 100	< 100
CC1(N)CCN(c2cnc(Sc3cccc(NC(=O)CCCCCCN4CC5(CCN(c6ccc(C(=O)NCc7ccc8c(c7)CN(C7CCC(=O)NC7=O)C8=O)cn6)C5)C4)c3)cn2)CC1 (centres unmarked) [Compound 155]	< 100	< 100
CC1(N)CCN(c2cnc(Sc3cccc(NC(=O)CCCCCCN4CC5(CCN(c6ccc(C#Cc7ccc8c(c7)CN(C7CCC(=O)NC7=O)C8=O)nn6)C5)C4)c3)cn2)CC1 (centres unmarked) [Compound 157]	< 100	> 1000
CC1(N)CCN(c2cnc(Sc3cccc(NC(=O)CCCCCCN4CC5(CCN(C6CC(C(=O)NCc7ccc8c(c7)CN(C7CCC(=O)NC7=O)C8=O)C6)C5)C4)c3)cn2)CC1 (centres unmarked) [Compound 160]	100 to 1000	> 1000

Compound	DC50 (SHP2 protein [1]) [nM]	DC50 (SHP2 protein [2]) [nM]
CC1(N)CCN(c2cnc(Sc3cccc(NC(=O)CCCCCOC4CC5(CCN(c6ccc(C(=O)NCc7ccc8c(c7)CN(C7CCC(=O)NC7=O)C8=O)nn6)C5)C4)c3)cn2)CC1 (centres unmarked) [Compound 166]	< 100	< 100
CC1(N)CCN(c2cnc(Sc3cccc(NC(=O)CCCCCCN4CC5(CCN(c6ncc(C(=O)NCc7ccc8c(c7)CN(C7CCC(=O)NC7=O)C8=O)cc6C(F)(F)F)C5)C4)c3)cn2)CC1 (centres unmarked) [Compound 170]	< 100	100 to 1000
CC1(N)CCN(c2cnc(Sc3cccc(NC(=O)CCCCCCCO[C@@H]4CN(c5ccc(C(=O)NCc6ccc7c(c6)CN(C6CCC(=O)NC6=O)C7=O)nn5)CC4(F)F)c3)cn2)CC1 (some centres unmarked) [Compound 178]	< 100	< 100
CC1(N)CCN(c2cnc(Sc3cccc(NC(=O)CCCCCCN4CC5(CCN(c6cnc(C(=O)NCc7ccc8c(c7)CN(C7CCC(=O)NC7=O)C8=O)cn6)C5)C4)c3)cn2)CC1 (centres unmarked) [Compound 179]	< 100	> 1000
CC1(N)CCN(c2cnc(Sc3cccc(NC(=O)CCCCCCOC4CC5CN(c6ccc(C(=O)NCc7ccc8c(c7)CN(C7CCC(=O)NC7=O)C8=O)nn6)CC5C4)c3)cn2)CC1 (centres unmarked) [Compound 183]	< 100	> 1000
CC1(N)CCN(c2cnc(Sc3cccc(NC(=O)CCCCCCCCCCNc4ccc(C(=O)NCc5ccc6c(c5)CN(C5CCC(=O)NC5=O)C6=O)nn4)c3)cn2)CC1 (centres unmarked) [Compound 185]	< 100	100 to 1000
CC1(N)CCN(c2cnc(Sc3cccc(NC(=O)CCCCCOc4ccc(C5CC5C(=O)NCc5ccc6c(c5)C(=O)N(C5CCC(=O)NC5=O)C6)cc4)c3)cn2)CC1 (centres unmarked) [Compound 189, 2-(4-((6-((3-((5-(4-amino-4-methylpyridin-1-yl)pyrazin-2-yl)thio)phenyl)amino)-6-oxohexyl)oxy)phenyl)-N-((2-(2,6-dioxopiperidin-3-yl)-3-oxoisoindol-5-yl)methyl)cyclopropane-1-formamide]	< 100	> 1000
NC1(CO)CCN(c2cnc(Sc3cccc(NC(=O)CCCCCCN4CC5(CCN(c6ccc(C(=O)NCc7ccc8c(c7)CN(C7CCC(=O)NC7=O)C8=O)nc6)C5)C4)c3)cn2)CC1 (centres unmarked) [Compound 190]	100 to 1000	> 1000
CC1(N)CCN(c2cnc(Sc3cccc(NC(=O)CCCCCOc4ccc(C5CCC(C(=O)NCc6ccc7c(c6)CN(C6CCC(=O)NC6=O)C7=O)CC5)cc4)c3)cn2)CC1 (centres unmarked) [Compound 191]	< 100	> 1000
CC1(N)CCN(c2cnc(Sc3cccc(NC(=O)CCCCCOc4ccc(C5CCC(C(=O)NCc6ccc7c(c6)CN(C6CCC(=O)NC6=O)C7=O)CC5)cc4)c3)cn2)CC1 (centres unmarked) [Compound 192]	< 100	> 1000
COCC1(N)CCN(c2cnc(Sc3cccc(NC(=O)CCCCCCN4CC5(CCN(c6ccc(C(=O)NCc7ccc8c(c7)CN(C7CCC(=O)NC7=O)C8=O)nn6)C5)C4)c3)cn2)CC1 (centres unmarked) [Compound 199]	< 100	< 100
NC1CN(c2cnc(Sc3cccc(NC(=O)CCCCCCN4CC5(CCN(c6ccc(C(=O)NCc7ccc8c(c7)CN(C7CCC(=O)NC7=O)C8=O)nn6)C5)C4)c3)cn2)CC1O (centres unmarked) [Compound 206]	> 1000	–
Cc1cc(N2CCC3(CN(CCCCCCC(=O)Nc4cccc(Sc5cnc(N6CCC(N)(CO)CC6)cn5)c4)C3)C2)cnc1C(=O)NCc1ccc2c(c1)CN(C1CCC(=O)NC1=O)C2=O (centres unmarked) [Compound 208]	< 100	> 1000
CC1(N)CCN(c2cnc(Sc3cccc(NC(=O)CCCCCC=C4CC5(CCN(c6ccc(C(=O)NCc7ccc8c(c7)CN(C7CCC(=O)NC7=O)C8=O)nn6)CC5)C4)c3)cn2)CC1 (centres unmarked) [Compound 209]	< 100	> 1000
NC1(CO)CCN(c2cnc(Sc3cccc(NC(=O)CCCCCC=C4CC5(CCN(c6ccc(C(=O)NCc7ccc8c(c7)CN(C7CCC(=O)NC7=O)C8=O)nn6)CC5)C4)c3)cn2)CC1 (centres unmarked) [Compound 210]	< 100	–
COc1nc(N2CCC3(CN(CCCCCCC(=O)Nc4cccc(Sc5cnc(N6CCC(C)(N)CC6)cn5)c4)C3)C2)ccc1C(=O)NCc1ccc2c(c1)CN(C1CCC(=O)NC1=O)C2=O (centres unmarked) [Compound 211]	< 100	< 100
